“And” between values parts separate entries of the source, which are not always exact repeats. Equal entries are not always repeated.
How the values were obtained:
CYP1A2 = biological target: T1, CYP1A2 (Homo sapiens, UniProt P05177); experiment: biochemical
T1 sequence (P05177 1-516): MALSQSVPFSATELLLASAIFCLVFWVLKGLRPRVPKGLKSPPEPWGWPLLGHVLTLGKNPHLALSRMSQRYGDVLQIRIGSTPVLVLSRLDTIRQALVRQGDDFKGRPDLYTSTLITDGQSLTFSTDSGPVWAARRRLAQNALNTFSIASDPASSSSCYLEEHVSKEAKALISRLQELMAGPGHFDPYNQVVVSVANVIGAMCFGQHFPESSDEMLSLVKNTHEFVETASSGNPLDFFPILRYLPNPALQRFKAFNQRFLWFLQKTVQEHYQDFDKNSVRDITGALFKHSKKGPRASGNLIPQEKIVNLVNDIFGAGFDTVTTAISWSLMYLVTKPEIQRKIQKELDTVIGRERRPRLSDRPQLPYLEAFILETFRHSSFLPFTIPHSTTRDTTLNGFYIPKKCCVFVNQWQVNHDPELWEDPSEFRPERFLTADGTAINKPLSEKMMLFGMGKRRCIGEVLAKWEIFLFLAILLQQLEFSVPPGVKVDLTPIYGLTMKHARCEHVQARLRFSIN

[1] = Plasma protein binding, dialysis equilibrium method, rat
WT HIV-1 RT = WT HIV-1 RT (Human immunodeficiency virus type 1 group M subtype B, UniProt P03366); experiment: HIV-1 RT inhibition assay; type: biochemical
[2] = tested on: HIV-1 RES056 (K103N/Y181C); experiment: Anti-HIV-1 activity against double mutant RES056 in MT-4 cells; type: cell-based; conditions: Human immunodeficiency virus 1, MT4, read-out: EC50 RES056
HIV-1 E138K = experiment: Anti-HIV-1 activity against mutant strain E138K in MT-4 cells; type: cell-based; conditions: Human immunodeficiency virus 1, MT4, read-out: EC50 E138K
[3] = Plasma protein binding, dialysis equilibrium method, human
HIV-1 RT RNase H = HIV-1 RT RNase H (Human immunodeficiency virus type 1 group M subtype B, UniProt P03366); experiment: HIV-1 RT RNase H inhibition; type: biochemical
HIV-1 F227L + V106A = experiment: Anti-HIV-1 activity against double mutant F227L + V106A in MT-4 cells; type: cell-based; conditions: Human immunodeficiency virus 1, MT4, read-out: EC50 F227L + V106A
HIV-2 (ROD) = experiment: Anti-HIV activity in MT-4 cells; type: cell-based; conditions: Human immunodeficiency virus 2, MT4, read-out: EC50 ROD
CYP2C19 = CYP2C19 (Homo sapiens, UniProt P33261); experiment: Cytochrome P450 inhibition, CYP2C19; type: in vitro ADME
CYP2C9 = CYP2C9 (Homo sapiens, UniProt P11712); experiment: Cytochrome P450 inhibition, CYP2C9; type: in vitro ADME
HIV-1 Y188L = experiment: Anti-HIV-1 activity against mutant strain Y188L in MT-4 cells; type: cell-based; conditions: Human immunodeficiency virus 1, MT4, read-out: EC50 Y188L
CYP3A4M = CYP3A4M (Homo sapiens, UniProt P08684)
HIV-1 K103N = experiment: Anti-HIV-1 activity against mutant strain K103N in MT-4 cells; type: cell-based; conditions: Human immunodeficiency virus 1, MT4, read-out: EC50 K103N
HIV-1 L100I = experiment: Anti-HIV-1 activity against mutant strain L100I in MT-4 cells; type: cell-based; conditions: Human immunodeficiency virus 1, MT4, read-out: EC50 L100I
HIV-1 Y181C = experiment: Anti-HIV-1 activity against mutant strain Y181C in MT-4 cells; type: cell-based; conditions: Human immunodeficiency virus 1, MT4, read-out: EC50 Y181C
CYP2D6 = CYP2D6 (Homo sapiens, UniProt P10635); experiment: biochemical
[4] = Kinetic aqueous solubility; conditions: kinetic from dmso stock
[5] = Cytotoxicity in uninfected MT-4 cells; type: cell-based; conditions: human, uninfected MT-4 cells
[6] = In vivo pharmacokinetics in SD rats; conditions: rat, plasma
[7] = cited from earlier work
MT-4 cells = experiment: Cytotoxicity in uninfected MT-4 cells; type: cell-based; conditions: uninfected MT-4 cell viability reduced by 50%; listed as ETV
[8] = aqueous solution at pH 2.0, pH 2, aqueous buffer
[9] = aqueous solution at pH 7.0, pH 7, aqueous buffer
[10] = aqueous solution at pH 7.4, pH 7.4, aqueous buffer

Sequence of CYP2D6 (P10635 whole entry): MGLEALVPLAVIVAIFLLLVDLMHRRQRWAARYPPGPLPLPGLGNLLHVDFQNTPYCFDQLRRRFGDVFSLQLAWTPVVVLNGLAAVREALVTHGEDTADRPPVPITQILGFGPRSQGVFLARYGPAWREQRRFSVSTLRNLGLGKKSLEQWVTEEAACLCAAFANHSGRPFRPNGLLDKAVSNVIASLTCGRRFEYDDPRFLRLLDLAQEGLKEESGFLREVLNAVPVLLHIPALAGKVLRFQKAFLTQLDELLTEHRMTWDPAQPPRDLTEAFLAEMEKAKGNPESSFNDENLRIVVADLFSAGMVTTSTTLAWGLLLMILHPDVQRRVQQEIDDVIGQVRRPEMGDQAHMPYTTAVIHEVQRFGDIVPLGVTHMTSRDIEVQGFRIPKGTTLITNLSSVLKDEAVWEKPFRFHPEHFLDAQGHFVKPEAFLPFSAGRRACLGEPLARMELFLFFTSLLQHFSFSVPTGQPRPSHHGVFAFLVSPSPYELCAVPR
Sequence of CYP2C9 (P11712 whole entry): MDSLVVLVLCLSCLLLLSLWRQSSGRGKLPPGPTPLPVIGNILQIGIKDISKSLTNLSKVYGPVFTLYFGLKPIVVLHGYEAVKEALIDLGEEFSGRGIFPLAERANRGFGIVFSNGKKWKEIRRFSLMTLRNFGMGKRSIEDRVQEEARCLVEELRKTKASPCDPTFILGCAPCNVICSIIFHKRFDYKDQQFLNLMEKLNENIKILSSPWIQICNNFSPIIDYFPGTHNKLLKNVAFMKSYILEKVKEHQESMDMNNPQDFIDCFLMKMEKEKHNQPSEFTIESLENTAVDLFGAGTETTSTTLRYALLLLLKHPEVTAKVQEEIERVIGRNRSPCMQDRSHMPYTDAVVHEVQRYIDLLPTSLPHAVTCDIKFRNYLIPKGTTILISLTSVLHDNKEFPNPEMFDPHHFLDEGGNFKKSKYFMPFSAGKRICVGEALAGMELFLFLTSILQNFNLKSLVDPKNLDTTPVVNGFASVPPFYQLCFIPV
Sequence of CYP3A4M (P08684 whole entry): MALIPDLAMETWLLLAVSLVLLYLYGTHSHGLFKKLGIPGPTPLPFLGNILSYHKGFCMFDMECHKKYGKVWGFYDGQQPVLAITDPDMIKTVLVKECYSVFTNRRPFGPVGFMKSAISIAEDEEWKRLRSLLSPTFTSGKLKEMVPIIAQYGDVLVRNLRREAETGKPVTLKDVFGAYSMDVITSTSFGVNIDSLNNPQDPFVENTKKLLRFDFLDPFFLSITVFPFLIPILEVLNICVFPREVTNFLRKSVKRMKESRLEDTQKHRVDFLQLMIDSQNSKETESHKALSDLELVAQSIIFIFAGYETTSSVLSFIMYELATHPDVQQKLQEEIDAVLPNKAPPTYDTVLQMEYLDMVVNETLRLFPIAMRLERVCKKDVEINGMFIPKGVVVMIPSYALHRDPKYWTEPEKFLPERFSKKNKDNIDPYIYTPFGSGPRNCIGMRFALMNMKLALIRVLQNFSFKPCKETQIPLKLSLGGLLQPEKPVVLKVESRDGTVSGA
Sequence of CYP2C19 (P33261 whole entry): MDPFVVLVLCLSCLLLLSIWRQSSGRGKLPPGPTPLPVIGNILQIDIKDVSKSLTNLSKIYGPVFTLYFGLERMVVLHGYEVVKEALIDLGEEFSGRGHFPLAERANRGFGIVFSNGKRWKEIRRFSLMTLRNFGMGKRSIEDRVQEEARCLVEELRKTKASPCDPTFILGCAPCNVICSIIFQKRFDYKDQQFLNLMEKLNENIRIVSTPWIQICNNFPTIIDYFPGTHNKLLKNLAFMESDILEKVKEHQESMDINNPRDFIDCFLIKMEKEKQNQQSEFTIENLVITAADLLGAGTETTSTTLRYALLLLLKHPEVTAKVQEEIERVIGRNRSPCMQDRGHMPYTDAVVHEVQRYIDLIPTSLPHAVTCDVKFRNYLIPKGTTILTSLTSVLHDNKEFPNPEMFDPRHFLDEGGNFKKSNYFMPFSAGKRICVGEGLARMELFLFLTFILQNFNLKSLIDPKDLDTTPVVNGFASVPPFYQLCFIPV

For `Cc1cc(-c2ccc(C#N)cc2)cc(C)c1Oc1nc(NCCN2CCOCC2)nc(Nc2ccc(C#N)cc2)n1` [Compound 5j, 4ʹ-((4-((4-Cyanophenyl)amino)-6-((2-morpholinoethyl)amino)-1,3,5-triazin-2-yl)-oxy)-3ʹ,5ʹ-dimethyl-[1,1ʹ-biphenyl]-4-carbonitrile], the IC50 (CYP1A2) was greater than 50 µM, the recovery at 2 μmol/L [1] was 99.5% and the IC50 (WT HIV-1 RT) was 0.176 µM. For the same molecule, the EC50 [2] was 0.034 ± 0.004 µM, the EC50 (HIV-1 E138K) was 0.0064 ± 0.0001 µM and the recovery at 2 μmol/L [3] was 84.9%. For the same molecule, the IC50 (HIV-1 RT RNase H) was greater than 1100 µM, the EC50 (HIV-1 F227L + V106A) was 0.017 ± 0.004 µM and the EC50 (HIV-2 (ROD)) was 0.05 ± 0.001 µM. It also gave an IC50 (CYP2C19) greater than 50 µM, an IC50 (CYP2C9) of 32.9 µM and an EC50 (HIV-1 Y188L) of 0.017 ± 0.003 µM. For the same molecule, the IC50 (CYP3A4M) was greater than 50 µM, the EC50 (HIV-1 K103N) was 0.003 ± 0.001 µM and the EC50 (HIV-1 L100I) was 0.012 ± 0.002 µM. The EC50 (HIV-1 Y181C) was 0.013 ± 0.002 µM, the IC50 (CYP2D6) was greater than 50 µM and the solubility kinetic ([4]; FaSSIF) was 41.6 µg/mL and 76.2 µM. The solubility kinetic [4, 8] was 6.58 µg/mL and 12.1 µM, the solubility kinetic [4, 9] was < 0.853 µg/mL and < 1.56 µM and the solubility kinetic [4, 10] was < 0.853 µg/mL and < 1.56 µM. It also gave a CC50 at 4 days [5] of 1.08 ± 0.09 µM, an AUC(0-inf) ([6]; iv, 1 mg/kg) of 6.66 ± 0.809 µg·h/mL and an AUC(0-t) ([6]; iv, 1 mg/kg) of 6.65 ± 0.795 µg·h/mL. For the same molecule, the clearance ([6]; iv, 1 mg/kg) was 0.304 ± 0.0395 L/h/kg, the half-life ([6]; iv, 1 mg/kg) was 0.734 ± 0.174 h and the AUC(0-t) ([6]; po, 20 mg/kg) was 0.322 ± 0.176 µg·h/mL. It also gave a Cmax ([6]; po, 20 mg/kg) of 0.0432 ± 0.0398 µg/mL, a Tmax ([6]; po, 20 mg/kg) of 13.3 ± 9.24 h and a bioavailability ([6]; po, 20 mg/kg) of 0.485%.
With `Cc1cc(C#N)cc(C)c1Oc1nc(Nc2ccc(C#N)cc2)nc(N)c1Br` [ETR, etravirine, reference compound] the solubility kinetic ([4]; FaSSIF) was 13.2 µg/mL and 30.3 µM, the solubility kinetic [4, 8] was 127 µg/mL and 291 µM and the solubility kinetic [4, 9] was < 1 µg/mL and < 2.3 µM. The solubility kinetic [4, 10] was < 1 µg/mL and < 2.3 µM, the aqueous solubility [7] was “lower than 1 μg/mL” and the CC50 (MT-4 cells) was greater than 2.0 µM. For the same molecule, the CC50 at 4 days [5] was greater than 2 mg/L.

Source: paper PMC7016291 (Acta Pharmaceutica Sinica. B, 2019)
